What follows are compounds tested against DNA-dependent protein kinase catalytic subunit (Homo sapiens, UniProt P78527) (assay: Inhibition of DNA-dependent protein kinase).
Sequence of DNA-dependent protein kinase catalytic subunit (P78527 whole entry): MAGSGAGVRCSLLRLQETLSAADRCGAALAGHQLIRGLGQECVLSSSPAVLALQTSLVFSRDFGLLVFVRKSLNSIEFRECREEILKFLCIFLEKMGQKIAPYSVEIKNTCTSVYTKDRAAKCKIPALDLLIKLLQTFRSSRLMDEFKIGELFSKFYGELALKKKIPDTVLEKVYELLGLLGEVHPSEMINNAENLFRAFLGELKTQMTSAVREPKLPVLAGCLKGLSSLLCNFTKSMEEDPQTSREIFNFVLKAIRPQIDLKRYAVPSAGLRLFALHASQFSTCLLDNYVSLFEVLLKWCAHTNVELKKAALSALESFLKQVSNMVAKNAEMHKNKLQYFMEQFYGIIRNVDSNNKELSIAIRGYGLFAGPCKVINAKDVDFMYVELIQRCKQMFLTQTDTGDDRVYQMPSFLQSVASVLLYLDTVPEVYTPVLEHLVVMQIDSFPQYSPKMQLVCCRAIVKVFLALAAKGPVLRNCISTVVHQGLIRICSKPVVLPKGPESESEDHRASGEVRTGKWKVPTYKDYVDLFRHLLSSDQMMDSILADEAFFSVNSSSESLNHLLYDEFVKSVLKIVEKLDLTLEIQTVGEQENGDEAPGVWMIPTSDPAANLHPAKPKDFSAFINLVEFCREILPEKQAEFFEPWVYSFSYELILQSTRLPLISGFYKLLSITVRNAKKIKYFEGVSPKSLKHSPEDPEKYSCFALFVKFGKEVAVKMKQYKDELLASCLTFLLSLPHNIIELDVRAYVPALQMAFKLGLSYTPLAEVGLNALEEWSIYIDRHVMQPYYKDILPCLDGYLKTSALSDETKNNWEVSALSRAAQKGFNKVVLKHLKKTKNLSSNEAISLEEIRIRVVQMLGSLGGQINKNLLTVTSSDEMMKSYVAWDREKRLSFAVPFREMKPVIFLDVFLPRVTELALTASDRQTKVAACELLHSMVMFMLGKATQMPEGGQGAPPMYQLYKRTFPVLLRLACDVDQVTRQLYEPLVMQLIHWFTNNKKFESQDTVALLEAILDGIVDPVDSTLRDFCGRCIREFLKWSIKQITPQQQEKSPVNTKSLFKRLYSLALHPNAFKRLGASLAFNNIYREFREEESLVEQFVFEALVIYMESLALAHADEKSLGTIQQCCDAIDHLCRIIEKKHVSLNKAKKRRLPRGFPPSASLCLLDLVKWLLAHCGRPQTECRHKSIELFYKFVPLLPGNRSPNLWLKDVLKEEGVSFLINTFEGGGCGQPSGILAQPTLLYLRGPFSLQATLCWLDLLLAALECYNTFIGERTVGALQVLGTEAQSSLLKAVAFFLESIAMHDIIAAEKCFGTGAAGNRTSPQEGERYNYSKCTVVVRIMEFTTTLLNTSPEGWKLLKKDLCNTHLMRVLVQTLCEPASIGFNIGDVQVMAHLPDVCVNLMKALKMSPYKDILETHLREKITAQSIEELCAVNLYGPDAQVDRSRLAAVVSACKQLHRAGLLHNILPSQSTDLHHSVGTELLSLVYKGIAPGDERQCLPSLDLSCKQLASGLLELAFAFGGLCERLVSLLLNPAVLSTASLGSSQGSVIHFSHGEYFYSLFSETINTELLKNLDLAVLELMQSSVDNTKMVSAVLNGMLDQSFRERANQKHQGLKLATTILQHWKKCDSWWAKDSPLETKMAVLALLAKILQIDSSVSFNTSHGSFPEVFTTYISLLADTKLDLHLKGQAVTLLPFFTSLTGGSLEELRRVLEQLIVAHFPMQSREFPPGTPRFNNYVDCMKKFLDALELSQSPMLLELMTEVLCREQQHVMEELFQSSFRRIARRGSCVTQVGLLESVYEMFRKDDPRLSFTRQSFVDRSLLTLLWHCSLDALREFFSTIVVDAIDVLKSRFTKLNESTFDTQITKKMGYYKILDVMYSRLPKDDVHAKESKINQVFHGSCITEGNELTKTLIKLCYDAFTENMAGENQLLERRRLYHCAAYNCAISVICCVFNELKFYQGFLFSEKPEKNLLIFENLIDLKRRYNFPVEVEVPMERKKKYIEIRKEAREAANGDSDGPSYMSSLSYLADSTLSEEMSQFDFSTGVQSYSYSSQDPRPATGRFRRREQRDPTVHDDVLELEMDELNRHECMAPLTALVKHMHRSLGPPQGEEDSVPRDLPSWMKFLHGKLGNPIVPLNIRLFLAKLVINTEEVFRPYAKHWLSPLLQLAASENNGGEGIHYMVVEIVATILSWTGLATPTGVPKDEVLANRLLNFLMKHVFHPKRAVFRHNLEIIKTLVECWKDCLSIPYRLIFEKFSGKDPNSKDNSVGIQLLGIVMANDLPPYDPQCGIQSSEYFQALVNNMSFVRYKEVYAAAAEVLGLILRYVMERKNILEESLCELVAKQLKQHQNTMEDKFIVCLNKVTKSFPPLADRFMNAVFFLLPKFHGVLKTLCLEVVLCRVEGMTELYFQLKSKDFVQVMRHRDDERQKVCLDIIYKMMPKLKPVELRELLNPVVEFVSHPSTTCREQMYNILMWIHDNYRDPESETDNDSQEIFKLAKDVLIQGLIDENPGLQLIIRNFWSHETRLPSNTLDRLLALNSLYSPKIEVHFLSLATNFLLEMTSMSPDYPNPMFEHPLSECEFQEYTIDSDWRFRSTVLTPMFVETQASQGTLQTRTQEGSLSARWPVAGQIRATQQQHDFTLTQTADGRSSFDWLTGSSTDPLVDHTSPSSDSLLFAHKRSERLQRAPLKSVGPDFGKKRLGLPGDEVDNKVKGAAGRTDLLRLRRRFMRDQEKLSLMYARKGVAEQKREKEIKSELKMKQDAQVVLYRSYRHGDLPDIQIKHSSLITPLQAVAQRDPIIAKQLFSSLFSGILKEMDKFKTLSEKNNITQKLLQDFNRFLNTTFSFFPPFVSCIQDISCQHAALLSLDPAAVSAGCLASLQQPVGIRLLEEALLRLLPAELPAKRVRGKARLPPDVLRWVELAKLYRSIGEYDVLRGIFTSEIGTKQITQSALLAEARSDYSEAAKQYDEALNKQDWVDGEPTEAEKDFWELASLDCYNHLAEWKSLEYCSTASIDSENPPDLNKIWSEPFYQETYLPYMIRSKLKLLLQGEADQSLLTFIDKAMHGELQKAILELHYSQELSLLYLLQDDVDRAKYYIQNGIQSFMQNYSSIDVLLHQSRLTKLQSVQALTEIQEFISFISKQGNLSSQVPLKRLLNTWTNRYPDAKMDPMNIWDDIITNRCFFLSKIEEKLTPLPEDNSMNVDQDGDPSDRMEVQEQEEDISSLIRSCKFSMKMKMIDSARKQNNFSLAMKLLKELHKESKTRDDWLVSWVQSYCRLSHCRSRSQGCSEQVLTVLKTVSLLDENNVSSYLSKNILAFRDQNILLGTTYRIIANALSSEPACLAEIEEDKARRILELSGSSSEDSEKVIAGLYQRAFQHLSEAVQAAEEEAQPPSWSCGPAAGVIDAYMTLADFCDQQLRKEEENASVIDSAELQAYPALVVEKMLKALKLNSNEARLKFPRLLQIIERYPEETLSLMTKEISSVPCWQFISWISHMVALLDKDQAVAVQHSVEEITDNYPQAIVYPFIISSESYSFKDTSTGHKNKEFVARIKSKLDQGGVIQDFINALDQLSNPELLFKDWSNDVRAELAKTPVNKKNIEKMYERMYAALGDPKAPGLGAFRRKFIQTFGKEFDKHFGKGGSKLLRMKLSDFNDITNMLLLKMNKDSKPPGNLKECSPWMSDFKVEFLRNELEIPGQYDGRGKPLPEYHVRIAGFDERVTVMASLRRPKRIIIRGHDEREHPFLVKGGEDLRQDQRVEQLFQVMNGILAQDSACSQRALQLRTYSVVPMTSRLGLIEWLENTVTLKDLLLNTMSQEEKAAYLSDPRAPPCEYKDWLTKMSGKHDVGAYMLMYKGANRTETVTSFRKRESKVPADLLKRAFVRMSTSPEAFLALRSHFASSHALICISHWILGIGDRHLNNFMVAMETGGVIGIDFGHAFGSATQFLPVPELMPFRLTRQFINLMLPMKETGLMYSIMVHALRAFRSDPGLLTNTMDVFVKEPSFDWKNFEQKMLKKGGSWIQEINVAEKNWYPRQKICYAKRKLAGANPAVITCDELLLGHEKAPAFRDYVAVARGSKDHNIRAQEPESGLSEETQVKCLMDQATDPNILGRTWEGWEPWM

Structure (SMILES)	IC50
O=c1cc(N2CCOCC2)c2cc(-c3cccc4c3oc3ccccc34)ccc2o1	> 10 µM
O=c1oc(N2CCOCC2)cc2c(-c3ccccc3)cccc12	2.6 µM
O=c1cc(N2CCOCC2)c2ccc(-c3cccc(-c4ccccc4)c3)cc2o1	> 10 µM
O=c1cc(N2CCOCC2)c2cc(-c3cccc4c3sc3ccccc34)ccc2o1	> 10 µM
O=c1cc(N2CCOCC2)c2cc(-c3ccccc3)ccc2o1	1.8 µM
O=c1cc(N2CCOCC2)c2cc(-c3cccs3)ccc2o1	1.2 µM
COc1cccc2c(=O)oc(N3CCOCC3)cc12	3.2 µM
CCN1CCN(CC(=O)Nc2ccc(-c3cccc4c(=O)cc(N5CCOCC5)oc34)c3sc4ccccc4c23)CC1	0.005 µM
O=c1cc(N2CCOCC2)c2cc(-c3cccc(-c4ccccc4)c3)ccc2o1	1.6 µM
COc1ccc2oc(=O)cc(N3CCOCC3)c2c1	1.7 µM
O=c1cc(N2CCOCC2)c2ccc(-c3cccc4c3oc3ccccc34)cc2o1	2.1 µM
O=c1cc(N2CCOCC2)c2ccc(-c3ccccc3)cc2o1	1.7 µM
O=c1oc(N2CCOCC2)cc2c(-c3cccc(-c4ccccc4)c3)cccc12	0.68 µM
O=c1cc(N2CCOCC2)c2cc(-c3cc4ccccc4s3)ccc2o1	> 10 µM
O=c1oc(N2CCOCC2)cc2c(-c3cccc4c3oc3ccccc34)cccc12	0.33 µM
O=c1cc(N2CCOCC2)c2ccc(-c3cccs3)cc2o1	0.6 µM
O=c1cc(N2CCOCC2)c2ccc(-c3cc4ccccc4s3)cc2o1	> 10 µM
O=c1oc(N2CCOCC2)cc2ccccc12	> 10 µM
O=c1cc(N2CCOCC2)oc2c(-c3cccc4c3sc3ccccc34)cccc12	0.03 µM
O=c1cc(N2CCOCC2)oc2ccccc12	> 10 µM
O=c1cc(N2CCOCC2)c2ccc(-c3cccc4c3sc3ccccc34)cc2o1	2.1 µM
COc1cccc2c(=O)cc(N3CCOCC3)oc12	1.8 µM
O=c1oc(N2CCOCC2)cc2c(-c3cccc4c3sc3ccccc34)cccc12	0.34 µM
COc1ccc2c(N3CCOCC3)cc(=O)oc2c1	5.4 µM
